In patent US11180423B2, “Compositions and methods for micronutrient introduction” (CHS INC., priority 2014, dated 2021):

How the values were obtained:
[1] = system: corn variety Pioneer 8640 Roundup Ready; experiment: 2013 Corn Trial—Casselton, N. Dak.; format: in vivo; conditions: compared to untreated controls
[2] = system: Zea mays (variety DKC 43-48); experiment: 2012 Corn Trial—St. Cloud, Minn.; format: in vivo; conditions: in furrow, compared to untreated controls
Experimental: A corn trial utilizing a composition of the instant disclosure was performed in St. Cloud, Minn., in 2012. In this example, the composition comprised ortho-ortho EDDHA as the exemplary ligand.
In this example, Zea mays (variety DKC 43-48) seeds were planted on May 15, 2012. Soil moisture was normal and the seed bed was compacted. The tillage type was conventional till. The treated crop area for the instant example was 300 square feet (ft^2). The study design was randomized complete block (RCB) with four replications.
Corn plants were harvested on Oct. 10, 2012. Thereafter, the yield of corn plants administered the composition comprising ortho-ortho EDDHA was compared to the yield of control corn plants that were untreated.

[3] = Visual observations of fertilizer treatment mixes; format: physicochemical; conditions: various fertilizers, for instance 9-18-9
[4] = system: glycine max (variety PB0954RR) soybean; experiment: 2013 Soybean Trial—St. Cloud, Minn.; format: in vivo; conditions: compared to untreated controls
Experimental: A soybean trial utilizing a composition of the instant disclosure was performed in St. Cloud, Minn., in 2013. In this example, the composition comprised ortho-ortho EDDHA as the exemplary ligand.
In this example, glycine max (variety PB0954RR) soybean seeds were planted on Jun. 17, 2013. The tillage type was conventional till. The treated crop area for the instant example was 300 square feet (ft^2). The study design was randomized complete block (RCB) with four replications.
Soybean plants were harvested on Oct. 11, 2013. Thereafter, yield of soybean plants administered the composition comprising ortho-ortho EDDHA was compared to the yield of control soybean plants that were untreated.

corn seeds = experiment: 2013 Corn Seed Trial—Brookings, S. Dak.; format: in vivo; conditions: corn seed treatment; compared to untreated controls
Experimental: A corn seed trial utilizing a composition of the instant disclosure was performed in Brookings, S. Dak., in 2013. In this example, the composition comprised ortho-ortho EDDHA as the exemplary ligand (i.e., “WC101”). The study design was randomized complete block (RCB) with four replications. […] [table] Plot unit sizes were approximately 10 feet by 40 feet according to the disclosed layout of FIG. 9.

corn = experiment: 2014 Corn Trial—Scandia, Kans.; format: in vivo; conditions: starter fertilizer treatment groups; for yield response (effect in words): FIG. 1, Table 8, improvement especially for groups without micronutrients (10-34-0, 9-18-9)
Experimental: A corn trial utilizing a composition of the instant disclosure was performed near Scandia, Kans., in 2014. In this example, the composition comprised ortho-ortho EDDHA as the exemplary ligand (i.e., “WC101”).
In this example, corn was planted on May 2, 2014. Treatments were applied as starter applications at planting with an application volume of 6 gpa. Weed control was completed as needed to keep weed free with maintenance sprays.
Data collected included yield (bu/acre), test weight, moisture, preliminary soil analysis, and plant tissue and grain analysis. Grain yield was measured harvesting the two center rows with a plot combine. Total phosphorus (P) content in plant tissue was measured for the ear leaf and grain P concentration was measured after harvest with grain analysis for total P content.
Fertilizer treatment mixes were completed before application. […] Although treatment application was complicated in some instances, the rates and placement for the instant example were believed to be within acceptable parameters. Grain yield was measured harvesting the two center rows with a plot combine. Total phosphorus (P) content in plant tissue was measured for the ear leaf and grain P concentration was measured after harvest with grain analysis for total P content.

[5] = system: corn variety Dekalb 45-51; experiment: 2013 Corn Trial—Brookings, S. Dak.; format: in vivo; conditions: compared to untreated controls
Experimental: A corn trial utilizing a composition of the instant disclosure was performed near Brookings, S. Dak., in 2013. In this example, the composition comprised ortho-ortho EDDHA as the exemplary ligand.
In this example, corn variety Dekalb 45-51 was planted on May 14, 2013. Corn was planted to a population of 32,000 plants per acre, and a 30-inch row spacing was used. The soil type was Brandt silty clay loam.
Corn plants were harvested on Oct. 24, 2013. Thereafter, the yield of corn plants administered the composition comprising ortho-ortho EDDHA was compared to the yield of control corn plants that were untreated.

O=C(O)C(NCCNC(C(=O)O)c1ccccc1O)c1ccccc1O (stereo not shown) [ortho-ortho EDDHA]
yield increase [1]: 4.6 bushels per acre | yield increase [2]: 8.5 bushels per acre | compatibility with fertilizers in treatment mixes [3]: possible compatibility issues | yield increase [4]: 5.1 bushels per acre | emergence increase (corn seeds): 3.5% | yield increase (corn seeds): 1.4 bushels per acre | yield response (effect in words) (corn; listed as WC101): improvement | yield response (effect in words) (corn; listed as ligand): statistically significant effect | plant tissue phosphorus (P) response, ear leaf (effect in words) (corn; FIG. 2, Table 8, listed as WC101): improvement | plant tissue phosphorus (P) response, ear leaf (effect in words) (corn; FIG. 2, Table 8, listed as ligand): statistically significant effect | grain P removal response (effect in words) (corn; FIG. 3, Table 8, listed as WC101): improvement | grain P removal response (effect in words) (corn; FIG. 3, Table 8, listed as ligand): statistically significant effect | yield increase [5]: 8.2 bushels per acre
